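Tested at 5 concentrations; 48 h exposure; 96-well plates; endpoints linearly interpolated, else capped at highest concentration. GI50 marks 50% less growth.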 Activity calls are given as the source filed them. Rule as the data show it: active = GI50 up to about 1.1 µM and inactive = higher.
Key:
Experiment in all cases: NCI anticancer screen, dose series, 48 h
ACHN = system: ACHN
SNB-19 = system: SNB-19
MCF7 = system: MCF7
MDA-N = system: MDA-N
HCT-116 = system: HCT-116
KM12 = system: KM12
CCRF-CEM = system: CCRF-CEM
HT-29 = system: HT-29
DU-145 = system: DU-145
TK-10 = system: TK-10
CAKI-1 = system: CAKI-1
SK-MEL-2 = system: SK-MEL-2
NCI-H226 = system: NCI-H226
BT-549 = system: BT-549
A549 = system: A549
PC-3 = system: PC-3
SK-MEL-28 = system: SK-MEL-28

Measured: GI50

CCCCc1ccc(Nc2nc(Cl)c3c(ncn3COCCOC(C)=O)n2)cc1
inactive: ACHN 18.5 µM | SNB-19 20.9 µM | MCF7 22.5 µM | MDA-N 18.8 µM | HCT-116 17.3 µM | KM12 18 µM | CCRF-CEM 28.2 µM | HT-29 18.7 µM | DU-145 16.6 µM | TK-10 20.4 µM | CAKI-1 25.9 µM | SK-MEL-2 19.1 µM | NCI-H226 17.4 µM | BT-549 15 µM | A549 19 µM | PC-3 20.9 µM

O=C(Cn1c(-c2ccccc2)cc2ccccc21)N1CCCC1
inactive: ACHN > 100 µM | SNB-19 > 100 µM | MCF7 > 100 µM | MDA-N > 100 µM | HCT-116 > 100 µM | HT-29 > 100 µM | DU-145 > 100 µM | SK-MEL-2 > 100 µM | NCI-H226 > 100 µM | BT-549 > 100 µM | A549 > 100 µM | PC-3 > 100 µM

O=C1/C(=C/c2ccc(Br)s2)NC(=S)N1c1ccccc1
inactive: ACHN 32.1 µM | SNB-19 26.9 µM | MCF7 34.5 µM | MDA-N > 100 µM | SK-MEL-28 > 100 µM | HCT-116 44.4 µM | KM12 > 100 µM | CCRF-CEM > 100 µM | HT-29 > 100 µM | DU-145 > 100 µM | TK-10 > 100 µM | CAKI-1 44.5 µM | SK-MEL-2 > 100 µM | NCI-H226 > 100 µM | BT-549 82.6 µM | PC-3 > 100 µM

Cc1noc(NS(=O)(=O)c2ccc(NC(=O)c3ccc4nc5ccccc5c(Nc5ccc(S(=O)(=O)Nc6onc(C)c6C)cc5)c4c3)cc2)c1C
inactive: ACHN > 100 µM | SNB-19 > 100 µM | MCF7 45.6 µM | MDA-N > 100 µM | SK-MEL-28 > 100 µM | HCT-116 > 100 µM | KM12 > 100 µM | CCRF-CEM 42.7 µM | HT-29 73.3 µM | DU-145 > 100 µM | TK-10 > 100 µM | CAKI-1 > 100 µM | SK-MEL-2 > 100 µM | NCI-H226 > 100 µM | BT-549 24.8 µM | A549 > 100 µM | PC-3 > 100 µM

CN(C)CCCNc1nnc(NCCCN(C)C)c2c(=O)c3sccc3[nH]c12
inactive: ACHN 5.85 µM | SNB-19 31.7 µM | MCF7 5.64 µM | MDA-N 3.4 µM | SK-MEL-28 28.8 µM | HCT-116 9.46 µM | KM12 5.75 µM | CCRF-CEM 9.48 µM | DU-145 8.75 µM | TK-10 9.86 µM | CAKI-1 5.05 µM | SK-MEL-2 18.4 µM | NCI-H226 8.95 µM | BT-549 32.1 µM | A549 5.41 µM | PC-3 6.01 µM

CCN(CC)CCNC(=O)c1cc2cc(NC(=O)c3cc4cc([N+](=O)[O-])ccc4[nH]3)ccc2[nH]1
inactive: ACHN 35.1 µM | SNB-19 49.8 µM | MCF7 2.39 µM | MDA-N 52.8 µM | SK-MEL-28 25.2 µM | HCT-116 2.85 µM | KM12 1.71 µM | HT-29 2.93 µM | DU-145 14.2 µM | TK-10 14.2 µM | CAKI-1 > 35.6 µM | SK-MEL-2 > 52.6 µM | NCI-H226 56.2 µM | BT-549 > 60.8 µM | A549 19.3 µM | PC-3 > 39 µM

O=c1oc2cc(O)ccc2c(O)c1C(c1ccccc1F)c1c(O)c2ccc(O)cc2oc1=O
inactive: ACHN > 100 µM | SNB-19 > 100 µM | MCF7 45.2 µM | MDA-N 61.2 µM | SK-MEL-28 52 µM | HCT-116 48.4 µM | KM12 78.3 µM | HT-29 > 100 µM | DU-145 > 100 µM | TK-10 > 100 µM | CAKI-1 > 100 µM | SK-MEL-2 45 µM | NCI-H226 > 100 µM | BT-549 11.3 µM | A549 > 100 µM | PC-3 > 100 µM

Cc1nn(-c2ccccc2)c2nc3ccc(Cl)cc3c(-c3ccccc3)c12
inactive: ACHN > 100 µM | SNB-19 > 100 µM | MCF7 > 100 µM | MDA-N > 100 µM | SK-MEL-28 > 100 µM | HCT-116 > 100 µM | KM12 > 100 µM | CCRF-CEM > 100 µM | HT-29 > 100 µM | DU-145 > 100 µM | TK-10 > 100 µM | SK-MEL-2 > 100 µM | NCI-H226 > 100 µM | BT-549 > 100 µM | A549 > 100 µM | PC-3 > 100 µM

OC(CCN1CCCCC1)(c1ccccc1)c1ccccc1 [PRIDINOL]
inactive: ACHN > 100 µM | SNB-19 > 100 µM | MCF7 > 100 µM | MDA-N > 100 µM | SK-MEL-28 > 100 µM | HCT-116 > 100 µM | KM12 > 100 µM | CCRF-CEM > 100 µM | HT-29 55 µM | DU-145 > 100 µM | TK-10 > 100 µM | CAKI-1 > 100 µM | SK-MEL-2 > 100 µM | BT-549 > 100 µM | A549 > 100 µM | PC-3 > 100 µM
